Measured values taken from patent publication US4263318A, “N-alkoxy- and N-aryloxysulfinylcarbamate esters” (priority 1979, dated 1981).
Where two headings read alike, the source gives them in different places.

Tests used:
Type in all cases: in vivo
[1] = test system: house flies, Musca domestica; experiment: Insecticidal activity against house flies (topical on the notum, mortality at 24 h); conditions: for LD50: Musca domestica, topical, read-out: House flies LD50
Method: (§1) Representative compounds of the N-aryloxy- and N-alkoxysulfinylcarbamate esters of the invention were tested for insecticidal activity against two insect species, house flies, Musca domestica, and mosquito larvae, Culex pipiens. Stock 1% concentrated solutions of each of the test compounds were made in acetone, and such solutions diluted with acetone to a concentration of 0.001-0.1%. House files were treated topically on the notum by 1 μL of each of the diluted acetone solutions and percent mortality was counted 24 hours after application. Insects were held at a constant temperature of 60° F. Larvicidal activity was determined by applying 1 ml of the acetone solutions in 100 ml of water containing 20 3rd instar mosquito larvae. Results are presented as LD50 in μg/g for house flies and LC50 in ppm for mosquito larvae.

[2] = test system: mosquito larvae, Culex pipiens; experiment: Larvicidal activity against mosquito larvae; conditions: 1 ml acetone solution in 100 ml water containing 20 3rd instar larvae
Method: as §1

[3] = test system: Swiss white mice; experiment: Mammalian toxicity, oral, Swiss white mice; conditions: compared with aldicarb / carbofuran
Method: (§2) Mammalian toxicity was determined against Swiss white mice.

[4] = Mammalian toxicity, oral, Swiss white mice; conditions: mouse, in vivo
Method: as §2

[5] = 1 μL acetone solution on the notum, mortality 24 hours after application, 60° F
[6] = oral, corn oil carrier, read-out: Mice LD50

Compound | Culex LC50 [2] [ppm] | LD50 [4, 6] [mg/kg] | LD50 ([1]; 24 h) [mg/kg] | other results
CCCCCCCCCCOS(=O)N(C)C(=O)ON=CC(C)(C)SC (centres unmarked) [XII, 2-methyl-2-(methylthio)propionaldehyde O-[(methyl)(decoxysulfinyl)carbamoyl]oxime] | 0.006 | 60 |  | LD50 [1, 5]: 11.5 mg/kg; toxicity to house flies compared with parent carbamate ([1]; compared with aldicarb / carbofuran): comparable toxicity; mammalian safety/toxicity compared with parent carbamate [3]: much safer to mammals
CCCCCCOS(=O)N(C)C(=O)Oc1ccccc1OC(C)C (centres unmarked) [VIII, 2-isopropoxyphenyl (methyl)(n-hexoxysulfinyl)carbamate] | 0.01 | > 1000 | 42 | 
CCCCOS(=O)N(C)C(=O)ON=C(C)SC (centres unmarked) [XI, S-methyl N-[N'-methyl-N'-butoxysulfinylcarbamoyloxy]thioacetimidate] |  |  |  | LD50 [1, 5]: 5.5 mg/kg
CN(C(=O)Oc1cccc2c1OC(C)(C)C2)S(=O)OC(C)(C)C (centres unmarked) [II, 2,3-dihydro-2,2-dimethylbenzofuranyl-7(methyl)(t-butoxysulfinyl)carbamate] | 0.0058 | 40 | 2.2 | 
CCCCCCOS(=O)N(C)C(=O)Oc1cccc2ccccc12 (centres unmarked) [XIII, 1-naphthyl(methyl)(hexoxysulfinyl)carbamate] |  | > 1000 | 360 | 
CC(C)Oc1ccccc1OC(=O)N(C)S(=O)OC(C)(C)C (centres unmarked) [IX, 2-isopropoxyphenyl (methyl)(t-butoxysulfinyl)carbamate] |  | 400 | 65 | 
CCCCOS(=O)N(C)C(=O)Oc1cccc2c1OC(C)(C)C2 (centres unmarked) [III, 2,3-dihydro-2,2-dimethylbenzofuranyl-7(methyl)(n-butoxysulfinyl)carbamate] |  | 160 | 16 | 
CNC(=O)O/N=C/C(C)(C)SC [aldicarb, 2-methyl-2-(methylthio)propionaldehyde 0-(methylcarbamoyl)oxime, reference compound] |  |  |  | LD50 ([4]; po, comparison value for parent aldicarb, read-out: LD50 (parent carbamate aldicarb, mammalian toxicity, text)): 0.3 to 0.5 mg/kg
CCCCOS(=O)N(C)C(=O)Oc1cccc(C(C)C)c1 (centres unmarked) [VI, 3-isopropylphenyl (methyl)(n-butoxysulfinyl)carbamate] |  |  | 50 | 
CCCCCCOS(=O)N(C)C(=O)ON=C(C)SC (centres unmarked) [X, S-methyl N-[N'-methyl-N'-hexoxysulfinylcarbamoyloxy]thioacetimidate] |  | 260 |  | LD50 [1, 5]: 6.5 mg/kg
CCCCCCOS(=O)N(C)C(=O)Oc1cccc2c1OC(C)(C)C2 (centres unmarked) [Example I, 2,3-dihydro-2,2-dimethylbenzofuranyl-7(methyl)(hexoxysulfinyl)carbamate] | 0.0025 | 280 | 13 | 
Cc1cccc(C)c1OS(=O)N(C)C(=O)Oc1cccc2c1OC(C)(C)C2 (centres unmarked) [V, 2,3-dihydro-2,2-dimethylbenzofuranyl-7(methyl)(2,6-dimethylphenoxysulfinyl)carbamate] |  | 100 | 13.5 | 
CCCCCCOS(=O)N(C)C(=O)Oc1cccc(C(C)C)c1 (centres unmarked) [VII, 3-isopropylphenyl (methyl)(n-hexoxysulfinyl)carbamate] |  | > 1000 | 80 | 
CN(C(=O)Oc1cccc2c1OC(C)(C)C2)S(=O)Oc1ccccc1 (centres unmarked) [IV, 2,3-dihydro-2,2-dimethylbenzofuranyl-7(methyl)(phenoxysulfinyl)carbamate] | 0.0055 | 42 | 6.4 | 
